The subject of one data set is NF-kB. The data set can be described thus: NF-kB inhibition in Jurkat T cells. It counts as cell-based, human. As to conditions: FIG. 4. On the procedure: FIG. 4 illustrates the evaluation of NF-kB in Jurkat T cells as previously described in detail after treatment with quinic acid (H+), quinic aid ammonium chelate neutralized to pH=7.5 or the equivalent amount of […] (NH4Cl).
Independent inhibition of NF-kB by either QA or NH4+ ions. Human Jurkat T cells were incubated together with either QA, QA-NH4+ or NH4Cl, and the degree of inhibition of NF-kB evaluated as described elsewhere. See, FIG. 4. Parra E, et al., 1997. Mol Cell Biol 17:1324-23; Akesson, C., et al., Int. Immunopharmacol., 5(1):219 (2005).

In data set [1] the test system is C57BL/6 mouse spleen cells. The data set can be described thus: Growth arrest of spleen cells cultured with mitogen Con A (thymidine incorporation). In kind it is cell-based. To be noted: 48 hours. For orientation: Dividing cells build labelled thymidine or BrdU into new DNA.
Procedure: Growth of spleen cells was evaluated in response to the mitogen Con A (2.5 μg/ml) after 48 hours by radioactive thymidine incorporation. Comparison is made at doses in mg/ml for inhibiting 25%, 50% and 90% of the growth of spleen cells; i.e. IC dose values.
Growth of spleen cells was evaluated in response to the mitogen Con A (2.5 μg/ml) after 48 hours by radioactive thymidine incorporation. Comparison is made at concentrations in mg/ml for inhibiting 25%, 50% and 90% of the growth of spleen cells; IC values.
Comparison is made at doses in mg/ml for inhibiting 25%, 50% and 90% of the growth of spleen cells; IC values.
For the study of Citrimix as the calcium/potassium alpha hydroxy citric acid chelate compared to the ammonia chelate of hydroxy citric acid (Nu-Citrimix), inhibition growth of primary spleen cells after in vitro exposure in microtiter cell culture for 48 hours in the presence of mitogen (Con A, 2 ug/ml), was the bioassay procedure used (Akesson C., Lindgren H., Pero R. W., Leanderson T., Ivars F., “An extract of Uncaria Tomentosa inhibiting cell division and NF-kB activity without inducing cell death,” International Immunopharm 3:1889-1900, 2003).
Data set [2] has as its system human HL-60 leukemic cells. The data set can be described thus: In vitro growth inhibition of cultured HL-60 cells by quinic acid salts/chelates (MTT). In kind it is cell-based. To be noted: 72 hr, concentrations up to 3000 μg/ml. From the text:
FIG. 1 illustrates in vitro growth inhibition expressed as IC50 values (i.e. the dose that inhibits 50% of growth) induced by various quinic acid salts, chelates or salts/chelates (molecular structure at saturation undetermined) in cultured HL-60 cells. QA-H+=free quinic acid (H+), QA-NH4.+=quinic acid ammonium chelate, QA-Na+=quinic acid sodium salt, QA-K+=quinic acid potaasium chelate, QA-Zn++=quinic acid zinc salt/chelate, QA-Li+=quinic acid lithium salt/chelate, Ca++=quinic acid calcium chelate, quinic acid histidine salt/chaelate=QA-histidine, quinic acid lysine salt/chelate=QA-lysine, and C-Med-100=non pH adjusted water extract.
For the study involving quinic acid salts and chelates (FIG. 1) quinic acid was purchased from Sigma (>99%). QA salts/chelates were synthesized by neutralization to pH=7.5 with the appropriate base, i.e., NH4OH, NaOH, Ca(OH)2, Zn(OH)2, LiOH, KOH, lysine or histidine. Serial dilutions of test compounds were added to human HL-60 leukemic cells (0.05×10^6 cells/ml) in 96-well, flat bottomed microtiter plates to give final concentrations in the cultures up to 3000 μg/ml. The plates were incubated for 72 hr at 37 C, pulsed with 20 μl MTT (5 mg/ml) for 3 hr, and the color estimated spectrophotometrically at 540 nm as described previously. (Schweitzer, C M et al. Spectrophotometric determination of clonogenic capacity of leukemic cells in semisolid microtiter culture systems. Experimental Hematology 21: 573-578, 1993). IC50 values were calculated and compared based on the live/dead ratio of cells.

The conditions of data set [3]: mouse, drink water; Akesson et al 2005; cited from earlier work.
The conditions of data set [4]: rat, oral; Sheng et al 2005; cited from earlier work.
The next data set has as its system DNA repair. The data set can be described thus: DNA repair enhancement in vivo. From the text: The discovery began in trying to explain the biological activity of a hot water extract of Cat's Claw bark, Uncaria tomentosa, called C-Med-100. […] After this initial biological characterization, the applicant has set forth to identify the natural product behind DNA repair enhancement as a potential anti-aging therapy. A series of chemical studies have led scientists to first identify carboxy alkyl esters (CAEs) as the bioactives and then it was followed by quinic acid esters (QAEs) being identified as the only bioactive CAEs in cat's claw water extracts. […] bioactive both in vitro and in vivo. […] However, quinic acid is present in water extracts of Cat's Claw as […] in effect in a pro-metabolite form since the QAEs would be hydrolyzed to quinic acid in the gastrointestinal tract.

The conditions of data set [5]: human, oral, highest dose tested 90 mg/kg; Beer et al 1951, Adamson et al 1970; cited from earlier work.
The test system of data set [6] is Rat white blood cells (WBC). The data set can be described thus: DNA damage recovery in the rat after DXR treatment, white blood cell count. It counts as in vivo. To be noted: for Prevention of cell death after exposure to DNA damaging agent DXR: DXR treatment, WBC after 15 days. From the text:
White blood cell (WBC) growth after 15 days estimated as 10^12WBC/liter blood. DXR=doxorubicin DNA damaging agent.
(§1) Rat white blood cells (WBC) or mouse spleen WBC were increased in vivo after quinic acid oral administration either by gavage or in drinking water from 7.2 to >8.2×10^6 cells/ml or 6.2 to 8.3×10^9 cells/ml, respectively. […] If extrapolated into a lifespan which is logically reasonable, then living to an average age of 90 years would be increased to 112 years by ingesting optimal amounts of quinic acid during one's lifetime.

In a further data set the test system is mouse spleen WBC. The data set can be described thus: Mouse spleen WBC after quinic acid oral administration. It counts as in vivo. To be noted: oral (gavage or drinking water), increased from 6.2.
Text: as §1

For data set [7] the following is noted: 2700 μg/ml; Jacobsen et al 1978; cited from earlier work.
For data set [8] the following is noted: lower animals, oral, highest dose tested 300-600 mg/kg; Adamson et al 1970; cited from earlier work.
The conditions of data set [9]: human, in vivo, po.
Procedure: Additional oral administration of high dose QA was carried out after ingestion of 6 gm Quinmax™ in human volunteers at the University of Lund. The purpose of this study was to determine if significant metabolism of QA to hippuric acid occurred when QA was administered in the ammonia chelated form as Quinmax™, a 1:1.6 molar ratio of QA to ammonia ions.
A apparently healthy volunteer drank 6 gm Quinmax™ dissolved in 300 ml water over a 15 min period, and then about 40 ml of peripheral blood (4-red topped vacutainers) were allowed to clot at room temperature to prepare serum samples by centrifugation. The serum sampling points were 0.7 hr, 1.7 hr, 2.7 hr, 3.7 hr, 10.5 hr 12.5 hr, 22 hr, 28 hr and 44 hr. 30 ml serum samples were precipitated with 50% ethanol, taken to dryness under a stream of air, and redissolved in 1 ml of methanol for simultaneous HPLC analysis of quinic acid and hippuric acid.
First to determine when peak serum concentrations of QA occurred and how long they would remain detectable.
Data set [10] is described as follows: Safety, toxicity and efficacy (Table 2), human. It counts as in vivo. To be noted: oral, highest dose tested 70 mg/kg, University of Lund human volunteer n = 2. From the text: Quinmax™ is substantially pure quinic acid neutralized with aqueous ammonia to pH=7.5. As a result, in water ammonium ions are also generated which in themselves have potent biological functions. Ammonium ions, for example, stimulate protein synthesis in the GI tract, neutralize lysosomal vesicles thus preventing oxidative stress DNA damage, and inhibit NF-kB mediated inflammatory responses. These are examples of additional biological properties of Quinmax™, which is devoid of any added-on toxicity. […] Jacobsen, L B, Richardson, C L, Floss, H G. 1978. Shikimic acid and quinic acid are not mutagenic in the Ames assay. Lloydia 41(5): 450-452. Here the most important consideration is to compare the highest doses of quinic acid exposure to those shown to have efficacy in various animal models. It is quite apparent that quinic acid doses that far exceed the known efficacious doses of quinic acid have been used in the various animal model systems.
Here the most important consideration is to compare the highest doses of quinic acid exposure to those shown to have efficacy in various animal models. It is quite apparent that quinic acid doses that far exceed the known efficacious doses of quinic acid have been used in the various animal model systems. […] Moreover, Quinmax™ is quinic acid neutralized with aqueous ammonia to pH=7.5. […]

Entries after “also recorded” stand apart in the source; their conditions may differ. Like-named read-outs stand apart in the source and are kept apart here.

In the case of `Cl.N` [NH4Cl, reference compound], the “NF-kB inhibition (comparison in words)” value in the data set on NF-kB is reported as “as effective as the quinic acid NH4+ chelate”. Moreover, in data set [1], the “IC25 growth of spleen cells (comparison in words)” value is on record as “comparable to the quinic acid ammonium chelate”, the “IC50 growth of spleen cells (comparison in words)” value is “comparable to the quinic acid ammonium chelate” and the “IC90 growth of spleen cells (comparison in words)” value is recorded as “comparable to the quinic acid ammonium chelate”.
Take `O=C([O-])C1(O)CC(O)C(O)C(O)C1.O=C([O-])C1(O)CC(O)C(O)C(O)C1.[Ca+2]` (stereo not drawn) [QA-Ca++, quinic acid calcium chelate]: the “IC50 growth inhibition of HL-60 cells (comparison in words)” value (“IC50 growth inhibition of HL-60 cells” for short) in data set [2] (FIG. 1) was “more effective than known salts such as QA-Na+”.
With `O=C(O)[C@]1(O)C[C@@H](O)[C@@H](O)[C@H](O)C1` [Quinic acid], the “Efficacy (efficacious dose)” value in data set [3] is 250 mg/kg; in [4] it was “≦200 mg/kg”. Further, in the data set on DNA repair, the “DNA repair enhancing activity (comparison in words)” value is “as much DNA repair enhancing activity in vivo as did the QAEs”. Also, the Toxicity result in [5] and in data set [8] was “None” each time. Further, the “Increase in the protection of the DNA from becoming damaged and killing the cells” value in data set [6] (calculated from rat WBC and mouse spleen WBC increases) is given as 13-25%. In data set [6] (rat), the “Prevention of cell death after exposure to DNA damaging agent DXR” value is “prevent cell death”. Further, in data set [6] (rat, oral (gavage or drinking water), increased from 7.2), the “Rat white blood cells (WBC) after oral administration” value is reported as > 8.2 ×10^6 cells/ml. Besides, the “Mouse spleen WBC after oral administration” value in the data set with mouse spleen WBC was 8.3 ×10^9 cells/ml. The “Toxicity evaluated by mutagenicity in the Ames Assay” value in [7] was “did not demonstrate any toxicity”.
`N.O=C(O)[C@]1(O)C[C@@H](O)[C@@H](O)[C@H](O)C1` [Quinmax™, quinic acid ammonium chelate]: in [4], the “Efficacy (efficacious dose)” value is “≦200 mg/kg”. The “DNA repair enhancing activity (comparison in words)” value in the data set on DNA repair is reported as “as efficacious as Cat's Claw water extracts such as C-Med-100”. Moreover, in data set [9], the “Time during which hippuric acid could be measured in serum” value lay in the range of 3.7 to 12.5 h and the “Time of peak serum concentrations of QA” value is given as “around 10.5 hr”. The “IC50 growth inhibition of HL-60 cells” value in data set [2] (FIG. 1, listed as QA-NH4+) is reported as “more effective than known salts such as QA-Na+”. Also, the “IC50 growth inhibition of HL-60 cells” value in data set [2] (FIG. 1, listed as QA-NH4+ chelate) is “much more biologically effective than any other salt or chelate; also recorded: as efficacious as the cat's claw water extract (C-Med-100)”. Further, in [6] (rat), the “Prevention of cell death after exposure to DNA damaging agent DXR” value is recorded as “prevent cell death”. Also, the “NF-kB inhibition (comparison in words)” value in the data set with NF-kB is “enhanced NF-kB inhibition over quinic acid (H+)”. Besides, in [1], the “IC25 growth of spleen cells (comparison in words)” value is “dramatically lowering the IC25, IC50 and IC90 values compared to quinic acid (H+)”; the “IC50 growth of spleen cells (comparison in words)” value is “dramatically lowering the IC25, IC50 and IC90 values compared to quinic acid (H+)”; the “IC90 growth of spleen cells (comparison in words)” value is “dramatically lowering the IC25, IC50 and IC90 values compared to quinic acid (H+)”. For the same compound, the Toxicity entry in [10] is “None”.

(Values after patent publication US20090275656A1, “Medicinal Compositions of Salts, Chelates and/or Free Acids of Alpha Hydroxyl Organic Acids and Related Processes and Methods” (priority 2005, published 2009).)
